The results in this text go back to patent EP0450097B1, “BENZOHETEROCYCLIC COMPOUNDS” (OTSUKA PHARMACEUTICAL CO., LTD., priority 1989, dated 1991).

For assay [1], the target named is T1, V₁ receptor (Rattus norvegicus, UniProt P30560).
T1 construct: Using rat liver plasma membrane preparations; from tissue; host or cells: rat liver plasma membranes
As to the kind of experiment: V₁ receptor binding assay ([³H]-Arg-vasopressin, rat liver plasma membrane preparations). To be noted: 37°C for 10 minutes. How it is done:
Using rat liver plasma membrane preparations prepared according to Ichihara's method [cf: Akira Ichihara, J. Bio. Chem., 258, 9283 (1983)], the plasma membrane (50000dpm, 2x10⁻¹⁰ M) of [³H]-Arg-vasopressin and a test compound (60 µg, 10⁻⁸-10⁻⁴ M) are incubated at 37°C for 10 minutes in 100 mM Tris-HCl buffer (pH: 8.0, 250 µl) containing 5 mM MgCl₂, 1 mM EDTA and 0.1 % BSA. After incubation, the mixture is filtered three times using the glass filter (GF/F) so as to separate the membrane preparation combined with vasopressin and then washed with the buffer (5 ml). This glass filter is taken out and mixed with liquid scintillation cocktail. The amount of [³H]-vasopressin combined with the membrane is measured by liquid scintillation counter and the rate of the inhibitory effect of the test compound is estimated according to the following equation. Rate of the inhibitory effect (%) = 100 -(C1 - B1)/(C0 - B1)X 100 [formula] C¹: The amount of [³H]-vasopressin combined with the membrane in the presence of the test compound (in prescribed amount). C⁰: The amount of [³H]-vasopressin combined with the membrane in the absence of the test compound. B¹: The amount of [³H]-vasopressin combined with the membrane in the presence of the excess amount of vasopressin (10⁻⁶ M).
The results are expressed as IC₅₀ values, which is the concentration of the test compound required to achieve the inhibitory effect in the rate of 50 %.

Assay [2] has as its target T2, V₂ receptor (Rattus norvegicus, UniProt Q00788).
T2 construct: Using rat kidney plasma membrane preparations; from tissue; host or cells: rat kidney plasma membranes
As to the kind of experiment: V₂ receptor binding assay ([³H]-Arg-vasopressin, rat kidney plasma membrane preparations). To be noted: 4°C for 3 hours. The procedure, abridged:
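Rat kidney plasma membranes incubated with [³H]-vasopressin and test compound, then filtered on GF/F glass filters and bound radioactivity counted by liquid scintillation.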

T1 sequence (P30560 whole entry): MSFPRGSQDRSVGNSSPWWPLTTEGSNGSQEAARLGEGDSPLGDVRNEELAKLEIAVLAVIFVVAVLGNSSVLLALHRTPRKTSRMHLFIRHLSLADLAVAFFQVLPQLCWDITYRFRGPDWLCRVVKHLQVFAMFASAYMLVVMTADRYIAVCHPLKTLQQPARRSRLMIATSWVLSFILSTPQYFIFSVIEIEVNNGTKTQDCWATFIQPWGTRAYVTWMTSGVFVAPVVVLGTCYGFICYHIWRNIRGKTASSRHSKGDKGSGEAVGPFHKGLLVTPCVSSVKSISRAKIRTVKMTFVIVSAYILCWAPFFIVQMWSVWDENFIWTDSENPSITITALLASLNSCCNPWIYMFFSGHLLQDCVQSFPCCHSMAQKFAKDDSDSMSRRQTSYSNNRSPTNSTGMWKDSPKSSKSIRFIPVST
T2 sequence (Q00788 whole entry): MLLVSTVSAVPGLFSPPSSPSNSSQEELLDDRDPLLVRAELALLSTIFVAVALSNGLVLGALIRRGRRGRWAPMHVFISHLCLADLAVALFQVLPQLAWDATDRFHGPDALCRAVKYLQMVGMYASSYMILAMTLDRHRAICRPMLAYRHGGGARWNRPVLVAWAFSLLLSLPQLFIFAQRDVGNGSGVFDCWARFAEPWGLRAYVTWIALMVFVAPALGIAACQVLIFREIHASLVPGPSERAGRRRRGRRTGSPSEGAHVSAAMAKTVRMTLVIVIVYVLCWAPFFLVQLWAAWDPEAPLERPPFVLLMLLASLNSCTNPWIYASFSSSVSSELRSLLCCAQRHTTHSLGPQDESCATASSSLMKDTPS

Consider `O=C(Nc1ccc(C(=O)N2CCCC(NCc3ccccc3)c3ccccc32)cc1)c1ccccc1Cl` (stereo not shown) [compound 252], for which the IC50 in assay [1] stood at 0.36 µM; in assay [2], 0.063 µM.

On to `CC(=O)NCCCCOc1ccccc1C(=O)Nc1ccc(C(=O)N2CCCCc3ccccc32)cc1` [compound 72], for which the figures for the IC50 in assay [1] and in assay [2] were 0.12 µM and 0.16 µM, respectively.

As to `Cc1ccccc1C(=O)Nc1ccc(C(=O)N2CCCC(OCC(=O)N3CCCC3C(N)=O)c3ccccc32)cc1` (stereo not shown) [compound 284], the IC50 in assay [1] was 0.29 µM; in assay [2], 0.019 µM.

In the case of `CNC1CCCN(C(=O)c2ccc(NC(=O)c3ccccc3C)cc2)c2ccc(Cl)cc21` (stereo not shown) [compound 287], the IC50 was found to be 0.064 µM in assay [1] and 0.007 µM in assay [2].

For the compound `O=C(Nc1ccc(C(=O)N2CCCCc3ccccc32)cc1)c1cccc(C(F)(F)F)c1` [compound 58], the IC50 in assay [1] came out at 0.4 µM; in assay [2], 0.14 µM.

In the case of `C#CCN(CC(=O)Nc1ccc(C(=O)N2CCCCc3ccccc32)cc1)c1ccccc1` [compound 130], the IC50 came to 0.023 µM in assay [1] and 0.007 µM in assay [2].

`O=C(Nc1ccc(C(=O)N2CCCCc3ccccc32)cc1)c1ccccc1OCCCCCCN1CCOCC1` [compound 74]: the IC50 in assay [1] came out at 0.1 µM; in assay [2], 0.51 µM.

Consider `Cc1ccccc1C(=O)Nc1ccc(C(=O)N2CCCC(NC3CCN(Cc4ccccc4)CC3)c3ccccc32)cc1` (stereo not shown) [compound 274], for which the IC50 amounted to 0.11 µM in assay [1] and 0.024 µM in assay [2].

On to `COC1CCCN(C(=O)c2ccc(NC(=O)c3ccccc3C)cc2)c2ccccc21` (stereo not shown) [compound 147], for which the IC50 in assay [1] worked out at 0.28 µM; in assay [2], 0.009 µM.

Regarding `COc1cc(C(=O)N2CCCC(NC3CC3)c3cc(Cl)ccc32)ccc1NC(=O)c1ccccc1Cl` (stereo not shown) [compound 322], the IC50 stood at 0.044 µM in assay [1] and 0.025 µM in assay [2].

For `CC(=O)OCCCCOc1ccccc1C(=O)Nc1ccc(C(=O)N2CCCCc3ccccc32)cc1` [compound 117], the IC50 came out at 0.22 µM in assay [1] and 0.24 µM in assay [2].

As to `COc1cc(OC)cc(C(=O)Nc2ccc(C(=O)N3CCCCc4ccccc43)cc2)c1` [compound 60], the IC50 in assay [1] was 0.18 µM; in assay [2], 0.15 µM.

Regarding `O=C(Nc1ccc(C(=O)N2CCCCc3ccccc32)cc1)c1ccccc1Br` [compound 56], the half-inhibitory concentration (IC50) in assay [1] worked out at 0.025 µM; in assay [2], 0.037 µM.

Consider `O=C(Nc1ccc(C(=O)N2CCCCc3ccccc32)cc1)c1cccc([N+](=O)[O-])c1` [compound 57], for which the IC50 was determined as 0.46 µM in assay [1] and 0.16 µM in assay [2].

With `Cc1ccccc1C(=O)Nc1ccc(C(=O)N2CCC(C)C(O)c3ccccc32)cc1` (stereo not shown) [compound 256], the IC50 worked out at 0.049 µM in assay [1] and 0.004 µM in assay [2].

For the compound `CNC(=O)OC1CCCN(C(=O)c2ccc(NC(=O)c3ccccc3C)cc2)c2ccccc21` (stereo not shown) [compound 196], the IC50 in assay [1] came to 0.4 µM; in assay [2] it was 0.013 µM.

For the compound `Cc1ccccc1C(=O)Nc1ccc(C(=O)N2CC(C)Cc3ccccc32)cc1` (stereo not shown) [compound 46], the results for the IC50 in assay [1] and in assay [2] were 0.4 µM and 0.018 µM, respectively.

Take `CN(C)C1CCCN(C(=O)c2ccc(NC(=O)CNc3ccccc3Cl)cc2)c2ccccc21` (stereo not shown) [compound 315]: the figures for the IC50 in assay [1] and in assay [2] were 0.38 µM and 0.025 µM, respectively.

As for `CCN(CC)CCOc1ccccc1C(=O)Nc1ccc(C(=O)N2CCCCc3ccccc32)cc1` [compound 71], the IC50 in assay [1] was 0.18 µM; in assay [2] it was 0.085 µM.

With `CN1CCN(CCCCCCOc2ccccc2C(=O)Nc2ccc(C(=O)N3CCCCc4ccccc43)cc2)CC1` [compound 75], the figures for the IC50 in assay [1] and in assay [2] were 0.069 µM and 0.3 µM, respectively.

As for `CN(C)C1CCCN(C(=O)c2ccc(NC(=O)c3ccccc3Cl)cc2)c2ccc(Cl)cc21` (stereo not shown) [compound 304], the IC50 in assay [1] turned out to be 0.21 µM; in assay [2], 0.024 µM.

Regarding `NC(=O)COc1ccccc1C(=O)Nc1ccc(C(=O)N2CCCCc3ccccc32)cc1` [compound 119], the figures for the IC50 in assay [1] and in assay [2] were 0.049 µM and 0.059 µM, respectively.

Turning to `Cc1ccccc1C(=O)Nc1ccc(C(=O)N2CCC(O)Cc3ccccc32)cc1` (stereo not shown) [compound 214], the IC50 was found to be 0.27 µM in assay [1] and 0.058 µM in assay [2].

As for `CN1CCCN(C(=O)c2ccc(NC(=O)C3CCCCC3)cc2)c2ccccc21` [compound 88], the IC50 is 0.34 µM in assay [1] and 0.021 µM in assay [2].

For `O=C(Nc1ccc(C(=O)N2CCCCc3ccccc32)cc1)C1CCCCC1` [compound 26], the IC50 is 0.071 µM in assay [1] and 0.025 µM in assay [2].

`CC(=O)N1CCN(C(=O)COC2CCCN(C(=O)c3ccc(NC(=O)c4ccccc4C)cc3)c3ccccc32)CC1` (stereo not shown) [compound 288]: the IC50 in assay [1] came to 0.26 µM; in assay [2], 0.015 µM.

For the compound `Cc1ccccc1C(=O)Nc1ccc(C(=O)N2CCCC(CN)c3ccccc32)cc1` (stereo not shown) [compound 244], the 50% inhibitory concentration (IC50) in assay [1] came out at 0.23 µM; in assay [2] it was 0.018 µM.

As to `COc1cccc(C(=O)Nc2ccc(C(=O)N3CCCCc4ccccc43)cc2)c1` [compound 29], the concentration for half-maximal inhibition (IC50) in assay [1] is 0.15 µM; in assay [2], 0.069 µM.

Consider `Cc1ccccc1C(=O)Nc1ccc(C(=O)N2CCCC(OC(=O)CN(C)C)c3ccccc32)cc1` (stereo not shown) [compound 275], for which the figures for the IC50 in assay [1] and in assay [2] were 0.18 µM and 0.018 µM, respectively.

In the case of `CNC1CCCN(C(=O)c2ccc(NC(=O)c3ccccc3Cl)c(OC)c2)c2ccc(Cl)cc21` (stereo not shown) [compound 321], the IC50 came to 0.059 µM in assay [1] and 0.012 µM in assay [2].

On to `Cc1ccccc1C(=O)Nc1ccc(C(=O)N2CCCC(OCC(=O)NCC(N)=O)c3ccccc32)cc1` (stereo not shown) [compound 285], for which the IC50 in assay [1] was found to be 0.18 µM; in assay [2], 0.008 µM.

On to `Cc1ccccc1C(=O)Nc1ccc(C(=O)N2CCCC(OCCCCN(C)C)c3ccccc32)cc1` (stereo not shown) [compound 161], for which the IC50 in assay [1] was 0.14 µM; in assay [2], 0.009 µM.

For `CCN(CC(=O)Nc1ccc(C(=O)N2CCCC(NC)c3cc(Cl)ccc32)cc1)c1ccccc1` (stereo not shown) [compound 307], the values for the IC50 in assay [1] and in assay [2] were 0.024 µM and 0.01 µM, respectively.

As to `O=C(Nc1ccc(C(=O)N2CCCCc3ccccc32)cc1)c1ccc(Cl)cc1Cl` [compound 62], the IC50 worked out at 0.098 µM in assay [1] and 0.023 µM in assay [2].

For `Cc1ccccc1C(=O)Nc1ccc(C(=O)N2CCCC(OCC(=O)N3CCS(=O)(=O)CC3)c3ccccc32)cc1` (stereo not shown) [compound 286], the IC50 in assay [1] was 0.4 µM; in assay [2], 0.019 µM.

Turning to `Cc1ccccc1C(=O)Nc1ccc(C(=O)N2CCCC(N(C)CC(N)=O)c3ccccc32)cc1` (stereo not shown) [compound 266], the figures for the IC50 in assay [1] and in assay [2] were 0.29 µM and 0.013 µM, respectively.

`Cc1ccccc1C(=O)Nc1ccc(C(=O)N2CCCC(OCCCN)c3ccccc32)cc1` (stereo not shown) [compound 173]: the IC50 was 0.15 µM in assay [1] and 0.008 µM in assay [2].

As to `Cc1ccccc1NCC(=O)Nc1ccc(C(=O)N2CCCC(N(C)C)c3ccccc32)cc1` (stereo not shown) [compound 316], the figures for the half-maximal inhibitory concentration (IC50) in assay [1] and in assay [2] were 0.47 µM and 0.06 µM, respectively.

Regarding `O=C(Nc1ccc(C(=O)N2CCCC(NC3CC3)c3cc(Cl)ccc32)cc1)c1ccccc1Cl` (stereo not shown) [compound 311], the IC50 in assay [1] was determined as 0.078 µM; in assay [2] it was 0.013 µM.

For the compound `CNC(=O)COC1CCCN(C(=O)c2ccc(NC(=O)c3ccccc3Cl)cc2)c2ccccc21` (stereo not shown) [compound 195], the values for the IC50 in assay [1] and in assay [2] were 0.17 µM and 0.01 µM, respectively.

On to `O=C(Nc1ccc(C(=O)N2CCCCc3ccccc32)cc1)c1cccc(O)c1` [compound 69], for which the 50% inhibitory concentration (IC50) in assay [1] was 0.066 µM; in assay [2] it was 0.12 µM.

For `Cc1ccccc1C(=O)Nc1ccc(C(=O)N2CCCC(OCC(=O)N3CCN(C)CC3)c3ccccc32)cc1` (stereo not shown) [compound 277], the IC50 was 0.23 µM in assay [1] and 0.016 µM in assay [2].

Regarding `Cc1cccc(C)c1C(=O)Nc1ccc(C(=O)N2CCCCc3ccccc32)cc1` [compound 64], the IC50 in assay [1] worked out at 0.069 µM; in assay [2], 0.007 µM.

As for `Cc1ccccc1C(=O)Nc1ccc(C(=O)N2CCCC(C)c3ccccc32)cc1` (stereo not shown) [compound 208], the 50% inhibitory concentration (IC50) in assay [1] turned out to be 0.11 µM; in assay [2], 0.007 µM.

As to `CCN(CC(=O)Nc1ccc(C(=O)N2CCCC(O)c3ccccc32)c(Cl)c1)c1ccccc1` (stereo not shown) [compound 222], the values for the IC50 in assay [1] and in assay [2] were 0.096 µM and 0.01 µM, respectively.

As for `Cc1ccccc1C(=O)Nc1ccc(C(=O)N2CCSCc3ccccc32)cc1` [compound 192], the values for the IC50 in assay [1] and in assay [2] were 0.054 µM and 0.011 µM, respectively.

Regarding `CC(=O)OCC1CCCN(C(=O)c2ccc(NC(=O)c3ccccc3C)cc2)c2ccccc21` (stereo not shown) [compound 231], the values for the concentration for half-maximal inhibition (IC50) in assay [1] and in assay [2] were 0.16 µM and 0.007 µM, respectively.

On to `O=C(Nc1ccc(C(=O)N2CCC=Cc3ccccc32)cc1)c1ccccc1Cl` [compound 207], for which the results for the IC50 in assay [1] and in assay [2] were 0.16 µM and 0.045 µM, respectively.

On to `O=C(Nc1ccc(C(=O)N2CCCCc3ccccc32)cc1)c1cccc(Cl)c1` [compound 30], for which the figures for the IC50 in assay [1] and in assay [2] were 0.15 µM and 0.029 µM, respectively.

Regarding `Cc1ccccc1C(=O)Nc1ccc(C(=O)N2CCCC(N(C)C)c3cc(Cl)ccc32)cc1` (stereo not shown) [compound 303], the IC50 in assay [1] worked out at 0.19 µM; in assay [2] it was 0.025 µM.
